ChEMBL document CHEMBL5370598, “[3H]UR-JG102-A Radiolabeled Cyclic Peptide with High Affinity and Excellent Selectivity for the Neuropeptide Y Y4 Receptor” (J Med Chem, 2023)

Columns and labels:
[1] = target: T1, Neuropeptide Y receptor type 4 (Homo sapiens, UniProt P50391); assay: Binding affinity to human Y4R under 137 mM sodium condition
[2] = target: T1, Neuropeptide Y receptor type 4; assay: Binding affinity to human Y4R expressed in CHO cells co-expressing Gqi5-mtAEQ at 4 degreeC; type: cell-based
[3] = target: T1, Neuropeptide Y receptor type 4; assay: Binding affinity to human Y4R expressed in CHO cells co-expressing Gqi5-mtAEQ assessed as dissociation constant preincubated for 20 mins under DPBS condition; type: cell-based
[4] = target: T1, Neuropeptide Y receptor type 4; assay: Binding affinity to human Y4R expressed in CHO cells co-expressing Gqi5-mtAEQ under sodium free buffer condition; type: cell-based
[5] = target: T1, Neuropeptide Y receptor type 4; assay: Binding affinity to human Y4R expressed in CHO cells co-expressing Gqi5-mtAEQ assessed as dissociation constant under sodium free buffer condition; type: cell-based
[6] = target: T1, Neuropeptide Y receptor type 4; assay: Binding affinity to human Y4R expressed in CHO cells co-expressing Gqi5-mtAEQ under DPBS condition; type: cell-based
[7] = target: T1, Neuropeptide Y receptor type 4; assay: Binding affinity to human Y4R expressed in CHO cells co-expressing Gqi5-mtAEQ assessed as dissociation constant preincubated for 2 hrs under DPBS condition; type: cell-based
[8] = target: T1, Neuropeptide Y receptor type 4; assay: (§1) Displacement of [3H]-(9S,12S,15S,19R,E)-4-amino-N-((S)-1-(((S)-1-(((S)-1-amino-3-(4-hydroxyphenyl)-1-oxopropan-2-yl)amino)-5-guanidino-1-oxopentan-2-yl)amino)-4-methyl-1-oxopentan-2-yl)-15-(3-guanidinopropyl)-12-(4-hydroxybenzyl)-2,11,14,17,20-pentaoxo-19-(4-(propanamido-2,3-t2)butanamido)-1,3,5,10,13,16,21-heptaazacyclopentacos-3-ene-9-carboxamide from human Y4R expressed in CHO cells coexpressing Gqi5-mtAEQ under isotonic sodium containing buffer condition; type: cell-based; conditions: read-out: Ki
[9] = target: T1, Neuropeptide Y receptor type 4; assay: Binding affinity to human Y4R under sodium free condition
[10] = target: T1, Neuropeptide Y receptor type 4; assay: as §1, with “hypotonic” for “isotonic”, “free” for “containing”; type: cell-based
[11] = target: T1, Neuropeptide Y receptor type 4; assay: Binding affinity to human Y4R under 150 mM sodium condition

T1 sequence (P50391 whole entry): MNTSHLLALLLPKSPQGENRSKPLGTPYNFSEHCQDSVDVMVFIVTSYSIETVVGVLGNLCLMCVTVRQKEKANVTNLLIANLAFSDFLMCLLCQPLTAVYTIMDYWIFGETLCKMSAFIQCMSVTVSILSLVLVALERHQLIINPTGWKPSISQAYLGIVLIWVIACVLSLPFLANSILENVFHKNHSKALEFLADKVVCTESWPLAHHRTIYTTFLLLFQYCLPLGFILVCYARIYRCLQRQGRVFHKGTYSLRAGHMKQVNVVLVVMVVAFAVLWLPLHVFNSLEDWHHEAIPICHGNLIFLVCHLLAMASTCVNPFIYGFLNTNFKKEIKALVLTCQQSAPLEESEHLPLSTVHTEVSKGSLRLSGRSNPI

Kd [1] [pM] | Kd [2] [pM] | Kd [3] [pM] | Kd [4] [pM] | Kd [5] [pM] | Kd [6] [pM] | Kd [7] [pM] | Ki [8] [pM] | Kd [9] [pM] | Ki ([10]; read-out: Ki) [pM] | Ki ([10]; read-out: pKi (converted)) [pM] | Kd [11] [pM] | SMILES
110 | 860 | 14 | 12 | 2 | 110 | 90 | – | – | – | – | – | [3H]CC([3H])C(=O)NCCCC(=O)N[C@@H]1CC(=O)N[C@@H](CCCNC(=N)N)C(=O)N[C@@H](Cc2ccc(O)cc2)C(=O)N[C@H](C(=O)N[C@@H](CC(C)C)C(=O)N[C@@H](CCCNC(=N)N)C(=O)N[C@@H](Cc2ccc(O)cc2)C(N)=O)CCCN/C(N)=N/C(=O)NCCCCNC1=O (stereo partly drawn)
– | – | – | – | – | – | – | 6700 | 670 | 410 | 209 | – | [3H]CC([3H])C(=O)NCCCCNC(=O)/N=C(\N)NCCCC[C@H](NC(=O)[C@H](Cc1ccc(O)cc1)NC(=O)CCCCCCC(=O)N[C@@H](Cc1ccc(O)cc1)C(=O)N[C@@H](CCCNC(=N)N)C(=O)N[C@@H](CC(C)C)C(=O)N[C@@H](CCCNC(=N)N)C(=O)N[C@@H](Cc1ccc(O)cc1)C(N)=O)C(=O)N[C@@H](CC(C)C)C(=O)N[C@@H](CCCNC(=N)N)C(=O)N[C@@H](Cc1ccc(O)cc1)C(N)=O (stereo partly drawn)
– | – | – | – | – | – | – | – | 1100 | – | – | 20900 | [3H]CC([3H])C(=O)NCCCC[C@H](NC(=O)[C@H](CC(C)C)NC(=O)[C@@H]1CCCN1C(=O)[C@H](C)N)C(=O)N1CCC[C@H]1C(=O)N[C@H](C(=O)N[C@@H](Cc1ccc(O)cc1)C(=O)N1CCC[C@H]1C(=O)NCC(=O)N[C@@H](CC(=O)O)C(=O)N[C@@H](CC(N)=O)C(=O)N[C@@H](C)C(=O)N[C@H](C(=O)N1CCC[C@H]1C(=O)N[C@@H](CCC(=O)O)C(=O)N[C@@H](CCC(N)=O)C(=O)NC(CCCC)C(=O)N[C@@H](C)C(=O)N[C@@H](CCC(N)=O)C(=O)N[C@@H](Cc1ccc(O)cc1)C(=O)N[C@@H](C)C(=O)N[C@@H](C)C(=O)N[C@@H](CC(N)=O)C(=O)N[C@@H](CC(C)C)C(=O)N[C@@H](CCCNC(=N)N)C(=O)N[C@@H](CCCNC(=N)N)C(=O)N[C@@H](Cc1ccc(O)cc1)C(=O)N[C@H](C(=O)N[C@@H](CC(N)=O)C(=O)NC(CCCC)C(=O)N[C@@H](CC(C)C)C(=O)N[C@H](C(=O)N[C@@H](CCCNC(=N)N)C(=O)N1CCC[C@H]1C(=O)N[C@@H](CCCNC(=N)N)C(=O)N[C@@H](Cc1ccc(O)cc1)C(N)=O)[C@@H](C)O)[C@@H](C)CC)[C@@H](C)O)C(C)C (stereo partly drawn)
